Data: patent US20110195911A1, “SYNTHETIC ANALOGS OF THE JUXTAMEMBRANE DOMAIN OF IGF1R AND USES THEREOF” (THE UNITED STATES OF AMERICA,AS REPRESENTED BY THE …, priority 2008, published 2011)
Where a SMILES comes first, the peptide text is derived from it. The star is where a group is joined. Palmitoyl = CCCCCCCCCCCCCCCC(=O)*

B1: peptide 1 (Pal-HRKRNNSRLGNG-NH2) (peptide)
peptide: Palmitoyl-HRKRNNSRLGNG-NH2
SMILES: CCCCCCCCCCCCCCCC(=O)N[C@@H](Cc1c[nH]cn1)C(=O)N[C@@H](CCCNC(=N)N)C(=O)N[C@@H](CCCCN)C(=O)N[C@@H](CCCNC(=N)N)C(=O)N[C@@H](CC(N)=O)C(=O)N[C@@H](CC(N)=O)C(=O)N[C@@H](CO)C(=O)N[C@@H](CCCNC(=N)N)C(=O)N[C@@H](CC(C)C)C(=O)NCC(=O)N[C@@H](CC(N)=O)C(=O)NCC(N)=O
B2: peptide 7 (Pal-HRKRNNSRLGNGVLYAS-NH2) (peptide)
peptide: Palmitoyl-HRKRNNSRLGNGVLYAS-NH2
SMILES: CCCCCCCCCCCCCCCC(=O)N[C@@H](Cc1c[nH]cn1)C(=O)N[C@@H](CCCNC(=N)N)C(=O)N[C@@H](CCCCN)C(=O)N[C@@H](CCCNC(=N)N)C(=O)N[C@@H](CC(N)=O)C(=O)N[C@@H](CC(N)=O)C(=O)N[C@@H](CO)C(=O)N[C@@H](CCCNC(=N)N)C(=O)N[C@@H](CC(C)C)C(=O)NCC(=O)N[C@@H](CC(N)=O)C(=O)NCC(=O)N[C@H](C(=O)N[C@@H](CC(C)C)C(=O)N[C@@H](Cc1ccc(O)cc1)C(=O)N[C@@H](C)C(=O)N[C@@H](CO)C(N)=O)C(C)C
B3: peptide 23 (Pal-HRKRNNSRLGNGVLYASVNP-NH2) (peptide)
peptide: Palmitoyl-HRKRNNSRLGNGVLYASVNP-NH2
SMILES: CCCCCCCCCCCCCCCC(=O)N[C@@H](Cc1c[nH]cn1)C(=O)N[C@@H](CCCNC(=N)N)C(=O)N[C@@H](CCCCN)C(=O)N[C@@H](CCCNC(=N)N)C(=O)N[C@@H](CC(N)=O)C(=O)N[C@@H](CC(N)=O)C(=O)N[C@@H](CO)C(=O)N[C@@H](CCCNC(=N)N)C(=O)N[C@@H](CC(C)C)C(=O)NCC(=O)N[C@@H](CC(N)=O)C(=O)NCC(=O)N[C@H](C(=O)N[C@@H](CC(C)C)C(=O)N[C@@H](Cc1ccc(O)cc1)C(=O)N[C@@H](C)C(=O)N[C@@H](CO)C(=O)N[C@H](C(=O)N[C@@H](CC(N)=O)C(=O)N1CCC[C@H]1C(N)=O)C(C)C)C(C)C
B4: peptide 5 (Pal-HRKRNNSRLGNGVLYASV-NH2) (peptide)
peptide: Palmitoyl-HRKRNNSRLGNGVLYASV-NH2
SMILES: CCCCCCCCCCCCCCCC(=O)N[C@@H](Cc1c[nH]cn1)C(=O)N[C@@H](CCCNC(=N)N)C(=O)N[C@@H](CCCCN)C(=O)N[C@@H](CCCNC(=N)N)C(=O)N[C@@H](CC(N)=O)C(=O)N[C@@H](CC(N)=O)C(=O)N[C@@H](CO)C(=O)N[C@@H](CCCNC(=N)N)C(=O)N[C@@H](CC(C)C)C(=O)NCC(=O)N[C@@H](CC(N)=O)C(=O)NCC(=O)N[C@H](C(=O)N[C@@H](CC(C)C)C(=O)N[C@@H](Cc1ccc(O)cc1)C(=O)N[C@@H](C)C(=O)N[C@@H](CO)C(=O)N[C@H](C(N)=O)C(C)C)C(C)C
B5: peptide 6 (Pal-VHRKRNNSRLGNGVLYASV-NH2) (peptide)
peptide: Palmitoyl-VHRKRNNSRLGNGVLYASV-NH2
SMILES: CCCCCCCCCCCCCCCC(=O)N[C@H](C(=O)N[C@@H](Cc1c[nH]cn1)C(=O)N[C@@H](CCCNC(=N)N)C(=O)N[C@@H](CCCCN)C(=O)N[C@@H](CCCNC(=N)N)C(=O)N[C@@H](CC(N)=O)C(=O)N[C@@H](CC(N)=O)C(=O)N[C@@H](CO)C(=O)N[C@@H](CCCNC(=N)N)C(=O)N[C@@H](CC(C)C)C(=O)NCC(=O)N[C@@H](CC(N)=O)C(=O)NCC(=O)N[C@H](C(=O)N[C@@H](CC(C)C)C(=O)N[C@@H](Cc1ccc(O)cc1)C(=O)N[C@@H](C)C(=O)N[C@@H](CO)C(=O)N[C@H](C(N)=O)C(C)C)C(C)C)C(C)C

Experiments:
[1] = test system: MCF-7 breast cancer cells; experiment: MTT cell toxicity assay in MCF-7 breast cancer cells; assay type: cell-based; conditions: MCF-7 cells, MTT; for TGI / GI50: final 0.5% FBS, two days with compound; for TGI: concentration of total growth inhibition (cytostatic); for growth inhibition / potency in MCF-7 cells (in words): comparison with related peptides
Experimental: Cell Toxicity Assays: MCF-7 (breast cancer), T47D (breast cancer), Colo 205 (colon cancer), JM-1 (rat hepatoma), Sk Me1-2 (melanoma), PLC (human hepatoma), and HepG2 (human hepatoma) cells were obtained from American Type Cell Culture Collection. MCF-7 cells were grown in RPMI medium supplemented with 10% Fetal Bovine Serum. The rest of the cell lines were grown in DMEM medium supplemented with 10% Fetal Bovine Serum.
MTT 43-(4,5-Dimethylthiazol-2-yl)-2,5-diphenyltetrazolium) cell assay was performed using MCF-7 breast cancer cells. For the assay, cells were seeded into 96 well plates in medium containing 1% Fetal Bovine Serum and 100 μL of a cell suspension containing 5000 cells per well. Wells containing medium-only, and wells containing untreated cells, served as controls.
Seeded cells were allowed to attach and grow in the wells for 24 hours. A 5 mM stock solution of each peptide was made by dissolving approximately 1 mg of peptide in appropriate amount of DMSO. 2 mL dilutions were used to make 0.2 μM, 1.0 μM, 5.0 μM, and 10.0 μM concentration solutions of the compounds in serum-free medium. 100 μl, of the resulting 2× solutions were added to the corresponding wells to provide a final FBS concentration of 0.5% and 0.1 μM, 0.5 μM, 2.5 μM, and 5.0 μM dilutions of inhibitors. The cells were incubated with test compounds for two days. The control wells were given 100 μL of medium to ensure maximum similarity to the test wells so that all of the wells had 200 μL of medium during the growth period. An individual plate was made for Time Zero, to which the dye was added at the time of addition of compounds.
An alternative potency assay was used to test compounds in MCF-7 (breast cancer), T47D (breast cancer), Colo 205 (colon cancer), JM-1 (rat hepatoma), Sk MeI-2 (melanoma), PLC (human hepatoma), and HepG2 (human hepatoma) cells. Cells were suspended at a concentration of approximately 5000 cells per 100 μL of suspension in a 5% FBS RPMI medium. The cells were seeded into 96-count wells and incubated over night. After one day's incubation, the 5% FBS medium was aspirated and replaced with 100 μL of no serum RPMI medium containing 1 mg Bovine Serum Albumin (BSA) per 1 mL RPMI. Various concentrations of the test compounds were prepared by dilution in no-serum medium containing 1 mg BSA/mL. 75 μL of the test compound solutions were added to the wells, and the cells were allowed to incubate for 15-20 minutes, after which time 25 μL of human recombinant IGF-1 (Peprotech) solution was added to the wells to attain final concentrations of 10 ng IGF-1/mL medium. The control wells were given 175 μL of no-serum medium in addition to 25 μL of IGF-1 solution. An individual plate was made for time zero, in which the medium was also aspirated and replaced with 175 μL of no-serum medium and 25 μL of IGF-1. 15 μL of MTT dye was added and let incubate for 4 hours, after which time a stop stop solubilization solution was added. The stop solution lysed the cells and released the dye reduced by the remaining living cells. Absorbance of the wells at 544 nm was determined by a FLUOstar/POLARstar Galaxy (BMG Lab Technologies GmbH) microplate reader. The activity was calculated from the data using the formula: 100×[(T−T0)/(C−T0)] for T>T0 and 100×[(T−T0)/T0] for T<T0, wherein T0 corresponds to cell density at the time of drug addition, “T” is the optical density of the test well after a 48-h period of exposure to test drug, and “C” is the control optical density. The GI50 measures the growth inhibitory power of the test agent, and is defined as the concentration of test drug where 100×(T−T0)/(C−T0)=50. The TGI is the concentration of test drug where 100×(T−T0)/(C−T0)=0. Thus, the TGI signifies a cytostatic effect.

[2] = biological target: Insulin-like growth factor 1 receptor (IGF1R) (UniProt P08069 31-1367, limits assumed); experiment: cell-based or functional assay
Chain of Insulin-like growth factor 1 receptor (IGF1R) (P08069 31-1367 limits assumed): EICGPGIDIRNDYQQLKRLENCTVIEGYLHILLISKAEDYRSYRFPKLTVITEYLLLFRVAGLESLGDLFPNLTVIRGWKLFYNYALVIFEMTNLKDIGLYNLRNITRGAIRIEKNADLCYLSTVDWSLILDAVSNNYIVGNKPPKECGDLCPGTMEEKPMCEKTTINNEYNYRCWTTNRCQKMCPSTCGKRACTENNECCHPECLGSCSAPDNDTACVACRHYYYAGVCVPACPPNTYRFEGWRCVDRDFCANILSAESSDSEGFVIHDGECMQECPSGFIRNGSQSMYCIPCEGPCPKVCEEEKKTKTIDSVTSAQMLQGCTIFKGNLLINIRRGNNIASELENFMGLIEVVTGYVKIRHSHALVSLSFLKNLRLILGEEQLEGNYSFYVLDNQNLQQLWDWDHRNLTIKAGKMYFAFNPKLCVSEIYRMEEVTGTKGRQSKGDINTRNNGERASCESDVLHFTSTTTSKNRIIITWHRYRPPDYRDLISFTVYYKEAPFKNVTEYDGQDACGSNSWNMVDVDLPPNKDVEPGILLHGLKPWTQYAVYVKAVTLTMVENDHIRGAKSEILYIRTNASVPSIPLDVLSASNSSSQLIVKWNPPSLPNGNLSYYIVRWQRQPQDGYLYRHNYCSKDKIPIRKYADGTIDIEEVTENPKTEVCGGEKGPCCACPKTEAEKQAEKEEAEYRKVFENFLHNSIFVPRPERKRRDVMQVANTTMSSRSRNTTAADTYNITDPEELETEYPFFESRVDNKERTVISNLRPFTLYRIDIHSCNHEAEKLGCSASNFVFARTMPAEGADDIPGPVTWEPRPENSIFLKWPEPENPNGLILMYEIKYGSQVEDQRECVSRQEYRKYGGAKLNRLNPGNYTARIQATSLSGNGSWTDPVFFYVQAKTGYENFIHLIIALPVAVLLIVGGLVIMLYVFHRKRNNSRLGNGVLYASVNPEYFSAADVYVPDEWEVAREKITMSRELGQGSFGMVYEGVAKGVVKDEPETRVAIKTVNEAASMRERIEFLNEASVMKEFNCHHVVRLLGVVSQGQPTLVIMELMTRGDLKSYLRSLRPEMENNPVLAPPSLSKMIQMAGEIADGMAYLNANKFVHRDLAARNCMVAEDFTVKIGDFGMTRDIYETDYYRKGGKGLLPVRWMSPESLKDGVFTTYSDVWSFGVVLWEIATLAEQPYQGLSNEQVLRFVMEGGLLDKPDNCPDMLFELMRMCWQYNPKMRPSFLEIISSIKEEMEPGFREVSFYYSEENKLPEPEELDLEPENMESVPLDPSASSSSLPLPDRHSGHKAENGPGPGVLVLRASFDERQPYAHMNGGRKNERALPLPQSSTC

Row | Molecule | cell killing activity (in words) [1] | TGI [1] [µM] | GI50 [1] [µM] | growth inhibition / potency in MCF-7 cells (in words) [1] | GI50 (µM), MTT assay, MCF-7 cells [2] [µM] | TGI (µM), MTT assay, MCF-7 cells [2] [µM]
1 | CCCCCCCCCCCCCCCC(=O)N[C@@H](Cc1c[nH]cn1)C(=O)N[C@@H](CCCNC(=N)N)C(=O)N[C@@H](CCCCN)C(=O)N[C@@H](CCCNC(=N)N)C(=O)N[C@@H](CC(N)=O)C(=O)N[C@@H](CC(N)=O)C(=O)N[C@@H](CO)C(=O)N[C@@H](CCCNC(=N)N)C(=O)N[C@@H](CC(C)C)C(=O)NCC(=O)N[C@@H](CC(N)=O)C(=O)NCC(=O)N[C@H](C(=O)N[C@@H](CC(C)C)C(=O)N[C@@H](Cc1ccc(O)cc1)C(=O)N[C@@H](C)C(=O)N[C@@H](CO)C(=O)N[C@H](C(=O)N[C@@H](CC(N)=O)C(N)=O)C(C)C)C(C)C [Peptide 3, Pal-HRKRNNSRLGNGVLYASVN-NH2] (Palmitoyl-HRKRNNSRLGNGVLYASVN-NH2) | exhibited cell killing activity | 1.55 ± 0.1 |  |  |  | 
2 | CCCCCCCCCCCCCCCC(=O)N[C@@H](CCCNC(=N)N)C(=O)N[C@@H](CCCCN)C(=O)N[C@@H](CCCNC(=N)N)C(=O)N[C@@H](CC(N)=O)C(=O)N[C@@H](CC(N)=O)C(=O)N[C@@H](CO)C(=O)N[C@@H](CCCNC(=N)N)C(=O)N[C@@H](CC(C)C)C(=O)NCC(=O)N[C@@H](CC(N)=O)C(=O)NCC(=O)N[C@H](C(=O)N[C@@H](CC(C)C)C(=O)N[C@@H](Cc1ccc(O)cc1)C(=O)N[C@@H](C)C(=O)N[C@@H](CO)C(=O)N[C@H](C(=O)N[C@@H](CC(N)=O)C(N)=O)C(C)C)C(C)C [Peptide 12, Pal-RKRNNSRLGNGVLYASVN-NH2] (Palmitoyl-RKRNNSRLGNGVLYASVN-NH2) |  | 2.7 ± 0.3 | 1.2 ± 0.1 | decreased activity slightly |  | 
3 | CCCCCCCCCCCCCCCC(=O)N[C@@H](CCCNC(=N)N)C(=O)N[C@@H](CC(N)=O)C(=O)N[C@@H](CC(N)=O)C(=O)N[C@@H](CO)C(=O)N[C@@H](CCCNC(=N)N)C(=O)N[C@@H](CC(C)C)C(=O)NCC(=O)N[C@@H](CC(N)=O)C(=O)NCC(=O)N[C@H](C(=O)N[C@@H](CC(C)C)C(=O)N[C@@H](Cc1ccc(O)cc1)C(=O)N[C@@H](C)C(=O)N[C@@H](CO)C(N)=O)C(C)C [Peptide 34, Pal-RNNSRLGNGVLYAS-NH2] (Palmitoyl-RNNSRLGNGVLYAS-NH2) |  | >5 | 0.04 ± 0.001 |  |  | 
4 | CCCCCCCCCCCCCCCC(=O)N[C@@H](CCCNC(=N)N)C(=O)N[C@@H](CC(N)=O)C(=O)N[C@@H](CC(N)=O)C(=O)N[C@@H](CO)C(=O)N[C@@H](CCCNC(=N)N)C(=O)N[C@@H](CC(C)C)C(=O)NCC(=O)N[C@@H](CC(N)=O)C(=O)NCC(=O)N[C@H](C(=O)N[C@@H](CC(C)C)C(=O)N[C@@H](Cc1ccc(O)cc1)C(N)=O)C(C)C [Peptide 16, Pal-RNNSRLGNGVLY-NH2] (Palmitoyl-RNNSRLGNGVLY-NH2) |  | 0.5 ± 0.02 | 0.07 ± 0.005 | most potent derivative |  | 
5 | CCCCCCCCCCCCCCCC(=O)N[C@@H](CCCNC(=N)N)C(=O)N[C@@H](CC(C)C)C(=O)NCC(=O)N[C@@H](CC(N)=O)C(=O)NCC(=O)N[C@H](C(=O)N[C@@H](CC(C)C)C(=O)N[C@@H](Cc1ccc(O)cc1)C(N)=O)C(C)C [Peptide 20, Pal-RLGNGVLY-NH2] (Palmitoyl-RLGNGVLY-NH2) |  | >5 | 0.2 ± 0.006 | gradual reduction in potency |  | 
6 | CCCCCCCCCCCCCCCC(=O)N[C@@H](Cc1c[nH]cn1)C(=O)N[C@@H](CCCNC(=N)N)C(=O)N[C@@H](CCCCN)C(=O)N[C@@H](CCCNC(=N)N)C(=O)N[C@@H](CC(N)=O)C(=O)N[C@@H](CC(N)=O)C(=O)N[C@@H](CO)C(=O)N[C@@H](CCCNC(=N)N)C(=O)N[C@@H](CC(C)C)C(=O)NCC(=O)N[C@@H](CC(N)=O)C(=O)NCC(N)=O [Peptide 1, Pal-HRKRNNSRLGNG-NH2] (Palmitoyl-HRKRNNSRLGNG-NH2) |  | >5 | 1.8 ± 0.05 |  |  | 
7 | B1 |  |  |  |  | 1.8 | > 5
8 | B2 |  |  |  |  | 1.45 | 4.1
9 | B3 |  |  |  |  | 0.1 | > 5
10 | B4 |  |  |  |  | 0.45 | 1.45
11 | B5 |  |  |  |  | 0.25 | 1.05
